Our source for the IC50 values is ChEMBL document CHEMBL3217611, “Synthesis, cytotoxicity and hDHFR inhibition studies of 2H-pyrido[1,2-a]pyrimidin-2-ones” (Medchemcomm, 2013).

Some results are limits rather than exact numbers.

One assay concerns HeLa. In words: cells. As to conditions: Homo sapiens, 24 h.
Another assay relates to A549. In words: Cytotoxicity against human A549 cells after 24 hrs by MTT assay. The assay is classed as functional, cell-based. The following applies: A549, 24 h. For orientation: Formazan colour is commonly taken as a measure of viable cells.
A further assay deals with MCF7. Kind of assay: Cytotoxicity against human MCF7 cells after 24 hrs by MTT assay. It is filed as functional, cell-based. As to conditions: MCF7, 24 h.
In a further assay the test system is HepG2. In words: cells. The following applies: Homo sapiens, HepG2, 24 h.
A further assay relates to SK-N-SH. Kind of assay: Cytotoxicity against human SK-N-SH cells after 24 hrs by MTT assay. It is filed as functional, cell-based.
For a further assay, the target named is T1, Dihydrofolate reductase (Homo sapiens, UniProt P00374).
T1 sequence (P00374 whole entry): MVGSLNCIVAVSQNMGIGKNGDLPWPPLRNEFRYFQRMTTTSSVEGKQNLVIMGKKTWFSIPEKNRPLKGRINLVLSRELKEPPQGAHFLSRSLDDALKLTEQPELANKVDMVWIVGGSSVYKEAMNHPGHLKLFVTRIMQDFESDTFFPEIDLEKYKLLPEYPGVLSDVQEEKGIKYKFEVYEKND
In words: Inhibition of human DHFR assessed as depletion of NADPH after 30 secs shaking by spectrophotometry.

For orientation: IC50 means the concentration that gives 50% inhibition.

Description for HeLa: Cytotoxicity against human HeLa cells after 24 hrs by MTT assay
Description for HepG2: Cytotoxicity against human HepG2 cells after 24 hrs by MTT assay

`O=C1N=C2C=CC=CN2CC1C(O)c1cccs1` (stereo unspecified): the IC50 with HeLa is 166 µM; in the assay on A549, 248 µM; in the assay with MCF7 it was 166 µM; in the assay on HepG2, over 1000 µM; in the assay on SK-N-SH, over 1000 µM.
As to `O=c1nc2ccccn2cc1Cc1ccccc1`, the 50% inhibitory concentration (IC50) in the assay with HeLa is over 1000 µM; in the assay on A549, 104 µM; with MCF7, 75.4 µM; in the assay on HepG2, over 1000 µM; with SK-N-SH, 95.4 µM.
For the molecule `O=c1nc2ccc(Cl)cn2cc1Cc1ccc(F)cc1C(F)(F)F`, the IC50 with HeLa was over 1000 µM; in the assay on A549, over 1000 µM; in the assay with MCF7, 181 µM; in the assay with HepG2 it was over 1000 µM; with SK-N-SH it was 106 µM.
`Cc1ccc(Cc2cn3cc(Cl)ccc3nc2=O)cc1`: the IC50 in the assay with HeLa was over 1000 µM; with A549, over 1000 µM; in the assay with MCF7 it was over 1000 µM; with HepG2 it was over 1000 µM; in the assay on SK-N-SH, 0.86 µM.
As for `O=c1nc2ccccn2cc1Cc1ccc(Br)cc1`, the IC50 with HeLa is over 1000 µM; in the assay with A549 it was over 1000 µM; in the assay on MCF7 it was 157 µM; in the assay on HepG2, over 1000 µM; with SK-N-SH, 163 µM.
With `O=c1nc2ccc(Cl)cn2cc1Cc1ccc(F)cc1`, the IC50 with HeLa is over 1000 µM; in the assay with A549 it was 98.3 µM; with MCF7, 10.4 µM; in the assay with HepG2 it was over 1000 µM; with SK-N-SH it was 9.86 µM.
Regarding `Nc1cc(Br)cn2cc(Cc3ccccc3)c(=O)nc12`, the IC50 is over 1000 µM in the assay on HeLa; over 1000 µM in the assay with A549; over 1000 µM with MCF7; over 1000 µM with HepG2; 149 µM in the assay with SK-N-SH.
`Nc1cc(Br)cn2cc(Cc3ccc(F)cc3C(F)(F)F)c(=O)nc12`: the IC50 in the assay on HeLa is over 1000 µM; in the assay on A549, over 1000 µM; in the assay on MCF7, 151 µM; in the assay on HepG2, over 1000 µM; in the assay on SK-N-SH it was 133 µM.
Take `CC1(C)OC2O[C@@H](Cc3cn4cc(Cl)ccc4nc3=O)C(OCc3ccccc3)C2O1` (stereo partly specified): the IC50 is over 1000 µM with HeLa; 182 µM in the assay with A549; over 1000 µM in the assay on MCF7; over 1000 µM in the assay with HepG2; over 1000 µM with SK-N-SH.
With `O=c1nc2ccc(Cl)cn2cc1Cc1ccc(Oc2nc(Cl)c(Cl)cc2Cl)cc1`, the IC50 with HeLa is over 1000 µM; in the assay on A549, over 1000 µM; with MCF7, 96.9 µM; in the assay on HepG2, 992 µM; in the assay on SK-N-SH, 8.69 µM.
Regarding `COc1cccc2c1C(=O)c1c(O)c3c(c(O)c1C2=O)C[C@@](O)(C(=O)CO)C[C@@H]3O[C@H]1C[C@H](N)[C@H](O)[C@H](C)O1` [DOXORUBICIN], the IC50 with HeLa was 1.12 µM; in the assay on A549 it was 10.6 µM; with SK-N-SH, 10.9 µM.
In the case of `O=c1nc2ccc(Br)cn2cc1Cc1ccccc1`, the IC50 with HeLa is 152 µM; with A549, over 1000 µM; in the assay on MCF7, over 1000 µM; with HepG2, over 1000 µM; with SK-N-SH, 137 µM.
In the case of `O=c1nc2ccccn2cc1Cc1ccc(F)cc1C(F)(F)F`, the IC50 is 88 µM in the assay with HeLa; over 1000 µM in the assay with A549; 3.1 µM at Dihydrofolate reductase; 9.87 µM in the assay with MCF7; 804 µM with HepG2; 8.69 µM in the assay with SK-N-SH.
`CC1(C)OC2O[C@@H](Cc3cn4ccccc4nc3=O)C(OCc3ccccc3)C2O1` (stereo partly specified): the IC50 in the assay with HeLa is over 1000 µM; in the assay with A549, 199 µM; in the assay on MCF7, over 1000 µM; in the assay with HepG2, over 1000 µM; in the assay with SK-N-SH it was over 1000 µM.
On to `COc1ccc(Cc2cn3cc(Br)ccc3nc2=O)cc1`, for which the concentration for half-maximal inhibition (IC50) was 928 µM with HeLa; over 1000 µM with A549; over 1000 µM in the assay on MCF7; over 1000 µM with HepG2; 0.94 µM in the assay with SK-N-SH.
Regarding `Nc1cccn2cc(Cc3ccccc3)c(=O)nc12`, the IC50 with HeLa came out at 112 µM; with A549, 98 µM; at Dihydrofolate reductase, 8.72 µM; in the assay on MCF7, 105 µM; with HepG2, 131 µM; with SK-N-SH it was 116 µM.
In the case of `O=c1nc2ccc(Br)cn2cc1Cc1ccc(Br)cc1`, the IC50 in the assay with HeLa was 931 µM; with A549 it was 102 µM; in the assay with MCF7, 97.2 µM; with HepG2, over 1000 µM; in the assay with SK-N-SH, 0.87 µM.
In the case of `O=c1nc2ccc(Br)cn2cc1Cc1cccc(Oc2nc(Cl)c(Cl)cc2Cl)c1`, the IC50 was over 1000 µM with HeLa; over 1000 µM in the assay on A549; 2.73 µM at Dihydrofolate reductase; 9.77 µM in the assay on MCF7; over 1000 µM in the assay on HepG2; 9.24 µM in the assay on SK-N-SH.
In the case of `O=c1nc2ccc(Cl)cn2cc1Cc1ccc([N+](=O)[O-])cc1`, the IC50 in the assay with HeLa is 928 µM; in the assay on A549, over 1000 µM; in the assay with MCF7 it was over 1000 µM; in the assay on HepG2, over 1000 µM; in the assay on SK-N-SH, 0.94 µM.
As for `O=c1nc2ccccn2cc1Cc1ccc(F)cc1`, the IC50 is 139 µM in the assay with HeLa; over 1000 µM in the assay on A549; 200 µM with MCF7; over 1000 µM in the assay with HepG2; 125 µM in the assay with SK-N-SH.
For the molecule `O=c1nc2ccccn2cc1Cc1cccc(Oc2ccccc2)c1`, the IC50 in the assay with HeLa was over 1000 µM; in the assay on A549, over 1000 µM; in the assay on MCF7 it was 243 µM; in the assay with HepG2, over 1000 µM; in the assay with SK-N-SH, 141 µM.
For `O=c1nc2ccc(Br)cn2cc1Cc1ccc(Cl)cc1`, the IC50 in the assay with HeLa is over 1000 µM; with A549, 105 µM; in the assay with MCF7, over 1000 µM; with HepG2, over 1000 µM; in the assay on SK-N-SH, 0.94 µM.
Turning to `Nc1cccn2cc(Cc3ccc(F)cc3)c(=O)nc12`, the IC50 was over 1000 µM in the assay on HeLa; over 1000 µM in the assay on A549; 135 µM in the assay with MCF7; over 1000 µM in the assay with HepG2; 126 µM with SK-N-SH.
